The source made the active and inactive calls. No rule for the calls is given here. Numbered stars: 1 amine (or outer) side, 2 acyl side, 3 side chain; on linkers, the order of the positions; unused ones are H or OH. Peptide text beside a SMILES is read from it. CO = O=C([*:1])[*:2]

In the series the test system is GENE-TOX genotoxicity assays, various organisms and cells. Nature of the series: GENE-TOX mutagenicity studies. Particulars: for call: Assay Type: In vivo carcinogenicity studies, Assay Code: CCG+.
[1] abbreviates: Species/Cell Type: Drosophila melanogaster, Assay Type: Sex-linked recessive lethal gene mutation, Assay Code: SRL+, Evaluation Type: Evaluation A (Pre-1980).
[2] abbreviates: Species/Cell Type: Saccharomyces cerevisiae, Assay Type: Mitotic recombination or gene conversion, Assay Code: YEC+, Evaluation Type: Evaluation A (Pre-1980).
[3] abbreviates: Species/Cell Type: Salmonella typhimurium (one or more of the five standard strains: TA98, TA100, TA1535, TA1537, and TA1538), Assay Type: Histidine reverse gene mutation, Ames assay, Assay Code: SALT, Evaluation Type: Evaluation A (Pre-1980).
Setting [4] is: Species/Cell Type: Human, Sex: Male, Assay Type: Sperm morphology, Assay Code: SPH+, Evaluation Type: Evaluation A (Pre-1980).
Setting [5] is: Species/Cell Type: Nonhuman, Evaluation Type: Evaluation A (Pre-1980).
The mark [6] stands for this setting: Species/Cell Type: Human, Assay Type: Sister-chromatid exchange (SCE) in vitro, Assay Code: SC1T, Evaluation Type: Evaluation B (Post-1980).

Consider `CS(=O)(=O)OCCCl`, for which the mutagenic call was “active; positive” (Species/Cell Type: Arabidopsis species, Assay Type: Gene mutation, Assay Code: ARM+, Evaluation Type: Evaluation A (Pre-1980)); “active; positive” under setting [1]; “active; positive” (Species/Cell Type: Drosophila melanogaster, Sex: Male, Assay Type: Heritable translocation test, chromosome aberrations, Assay Code: DHT+, Evaluation Type: Evaluation A (Pre-1980)); “active; positive” (Species/Cell Type: Vicia faba, Assay Type: Chromosome aberrations, Assay Code: VIC+D, Dose Response: With dose response, Evaluation Type: Evaluation A (Pre-1980)). Regarding `CC(C)[C@H](NC(=O)[C@H](CCCN=C(N)N)NC(=O)N[C@@H](Cc1ccccc1)C(=O)O)C(=O)N[C@H](C=O)CCCN=C(N)N` ({Phe-CO}-Arg-Val-Arg-aldehyde), the mutagenic call (Species/Cell Type: Human, Assay Type: Sister-chromatid exchange (SCE) in vitro, Assay Code: SC1+, Evaluation Type: Evaluation B (Post-1980)) is “active; positive”; the mutagenic call (Species/Cell Type: Mouse (C3H/10T1/2) cells, Assay Type: Cell transformation, Assay Code: CTH-, Evaluation Type: Evaluation A (Pre-1980)) is “inactive; negative”; the mutagenic call (Species/Cell Type: Nonhuman, Assay Type: Sister-chromatid exchange (SCE) in vitro, Assay Code: SC2T, Evaluation Type: Evaluation B (Post-1980)) is “no conclusion”.

For the compound `CN(C)CCOc1ccc2c(c1)CC/C(=C\c1ncc([N+](=O)[O-])n1C)C2=O`, the mutagenic call by setting is: under setting [1], “active; positive”; under setting [2], “active; positive”. `CC1=CCc2c1cc(C)c1c2ccc2ccccc21`: for the setting “Species/Cell Type: Salmonella typhimurium (one or more of the five standard strains: TA98, TA100, TA1535, TA1537, and TA1538), Assay Type: Histidine reverse gene mutation, Ames assay, Assay Code: SAL+*, Activation: With metabolic activation, Evaluation Type: Evaluation A (Pre-1980)”, the mutagenic call is “active; positive”. In the case of `COc1cc([C@@H]2c3cc4c(cc3[C@H](O)[C@H]3COC(=O)[C@H]23)OCO4)cc(OC)c1OC`, for the setting “Species/Cell Type: Chinese hamster ovary (CHO) cells, Assay Type: Forward gene mutation at the HPRT locus, Assay Code: CHOT, Evaluation Type: Evaluation B (Post-1980)”, the mutagenic call is on record as “no conclusion”. Turning to `Cc1cc(Cl)ccc1OC(C)C(=O)O` (stereo unspecified), the mutagenic call under setting [2] is “active; positive”. `Cc1ccc2ccc3c4c(ccc3c2c1)C(=O)CC4`: the mutagenic call under setting [3] is listed as “no conclusion”. As to `O[C@H]1[C@H]2c3cc4c(cc3CN3CCC(=C[C@@H]1O)[C@H]23)OCO4`, the mutagenic call (Species/Cell Type: Mammalian polychromatic erythrocytes, Assay Type: Micronucleus test, chromosome aberrations, Assay Code: MNT+, Evaluation Type: Evaluation B (Post-1980)) was “active; positive”. With `C/C=C(/C)C(=O)O[C@@H]1CCN2CC=C(COC(=O)[C@@](O)([C@H](C)O)C(C)(C)O)[C@H]12`, the mutagenic call under setting [1] was “active; positive”. `Clc1ccc(Br)cc1`: the mutagenic call is “inactive; negative” (Species/Cell Type: Saccharomyces cerevisiae, Assay Type: Mitotic recombination or gene conversion, Assay Code: YEH-, Evaluation Type: Evaluation A (Pre-1980)); “inactive; negative” (Species/Cell Type: Salmonella typhimurium (one or more of the five standard strains: TA98, TA100, TA1535, TA1537, and TA1538), Assay Type: Histidine reverse gene mutation, Ames assay, Assay Code: SAL-, Evaluation Type: Evaluation A (Pre-1980)). `CC(=O)O[C@]1(C(C)=O)CC[C@H]2[C@@H]3C[C@H](C)C4=CC(=O)CC[C@]4(C)[C@H]3CC[C@@]21C`: the mutagenic call (Species/Cell Type: Human, Assay Type: Sister-chromatid exchange (SCE) in vitro, Assay Code: SC1+D, Dose Response: With dose response, Evaluation Type: Evaluation B (Post-1980)) is “active; positive”; the mutagenic call under setting [4] was “active; positive”; the mutagenic call (Species/Cell Type: Nonhuman, Assay Type: Sister-chromatid exchange (SCE) in vivo, Assay Code: SC3+, Evaluation Type: Evaluation B (Post-1980)) was “active; positive”.

As for `COc1ccc(C)cc1N`, the call under setting [5] was “active; positive”. On to `O=c1oc2cc3occc3cc2c2ccncc12`, for which the mutagenic call under setting [6] is on record as “no conclusion”.

In the case of `CCCCN(CCCC(=O)NCC(=O)O)N=O`, the mutagenic call under setting [3] is on record as “no conclusion”. On to `CS(C)=O.CS(C)=O.CS(C)=O.CS(C)=O.[Cl][Ru][Cl]`, for which the mutagenic call (Species/Cell Type: Salmonella typhimurium (one or more of the five standard strains: TA98, TA100, TA1535, TA1537, and TA1538), Assay Type: Histidine reverse gene mutation, Ames assay, Assay Code: SAL+, Evaluation Type: Evaluation A (Pre-1980)) is “active; positive”. Consider `CCCCCCCCCCCCN=C(N)N`, for which the mutagenic call (Species/Cell Type: Saccharomyces cerevisiae, Assay Type: Mitotic recombination or gene conversion, Assay Code: YEC-, Evaluation Type: Evaluation A (Pre-1980)) was “inactive; negative”. Consider `CON(C)C(=O)Nc1ccc(Br)cc1`, for which, for the setting “Species/Cell Type: Hordeum vulgare (barley), Assay Type: Chromosome aberrations, Assay Code: HOC-, Evaluation Type: Evaluation A (Pre-1980)”, the mutagenic call was “inactive; negative”. On to `Cn1c(=O)c2c([nH]c(=O)n2C)n(C)c1=O`, for which, where the note is “Species/Cell Type: Allium cepa, Assay Type: Chromosome aberrations, Assay Code: ALC-, Evaluation Type: Evaluation A (Pre-1980)”, the mutagenic call is “inactive; negative”. `CN1CCC(=C2c3ccccc3C3OC3c3ccccc32)CC1` (stereo unspecified): under setting [3], the mutagenic call is on record as “no conclusion”. As to `O=C([O-])[O-].[Cd+2]`, the mutagenic call (Species/Cell Type: Nonhuman, Assay Type: Sister-chromatid exchange (SCE) in vitro, Assay Code: SC2+, Evaluation Type: Evaluation B (Post-1980)) is “active; positive”. For the compound `C#C[C@]1(O)CC[C@H]2[C@@H]3CCC4=CC(=O)CC[C@@H]4[C@H]3CC[C@@]21C`, the mutagenic call under setting [4] was “active; positive”. The call under setting [5] is “active; positive”. In the case of `O=C1C=CCO1`, the mutagenic call (Species/Cell Type: Bacillus subtilis (H17 vs M45), Assay Type: Rec-assay, spot test, DNA effects (bacterial DNA repair), Assay Code: REW-, Evaluation Type: Evaluation A (Pre-1980)) is “inactive; negative”. Regarding `CC1(C)[C@@H](O[C@H]2O[C@H](C(=O)O)[C@@H](O)[C@H](O)[C@H]2O[C@@H]2O[C@H](C(=O)O)[C@@H](O)[C@H](O)[C@H]2O)CC[C@]2(C)[C@H]3C(=O)C=C4[C@@H]5C[C@@](C)(C(=O)O)CC[C@]5(C)CC[C@@]4(C)[C@]3(C)CC[C@@H]12`, under setting [6], the mutagenic call was “no conclusion”.

Turning to `COc1ccc2c(ccc3c4c(ccc32)C(C)CC4)c1` (stereo unspecified), under setting [3], the mutagenic call is “no conclusion”. With `CC(=O)O[C@]1(C(C)=O)CC[C@H]2[C@@H]3C=C(Cl)C4=CC(=O)[C@@H]5C[C@@H]5[C@]4(C)[C@H]3CC[C@@]21C`, the mutagenic call under setting [4] was “active; positive”. Regarding `CC(=O)OC[C@H]1OC(OC(C)=O)[C@H](NC(=O)N(C)N=O)[C@@H](OC(C)=O)[C@@H]1OC(C)=O` (stereo partly specified), the mutagenic call (Species/Cell Type: Chinese hamster lung (V79) cells, Assay Type: Forward gene mutation at the HPRT or ouabain locus, Assay Code: V79+, Evaluation Type: Evaluation A (Pre-1980)) is “active; positive”.
